From the supplement of paper PMC6723410
Where “and” joins values, the source holds several entries; their conditions need not be identical. Identical values can stand only once.

test system: GUMC-403; assay: viability at highest tested concentration (max response) relative to DMSO (% of DMSO control); higher = less cytotoxic; details: library / dose series: MIPE library, 11-point 1:3 dilution; top concentration 23 µM; 48 h
Summary of the method: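 Plates of 1536 wells were seeded with 700 patient-derived GUMC-403 papilloma cells per well, grown by conditional reprogramming, in 5 μL F + Y medium and kept overnight at 37 °C. Compounds followed at 23 nL by pin tool over an 11-point 1:3 series, for 48 h. After a CellTiter-Glo luminescence read on a ViewLux, signals were set against vehicle wells as 100% and empty wells as 0%. The reported number is viability at the highest tested concentration relative to vehicle control.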

How did the viability turn out when C[C@]12CC(=O)[C@H]3[C@@H](CC\C4=C\C(=O)\C=C/[C@]34C)[C@@H]1CC[C@]2(O)C(=O)CO was run?
The viability was 131.

same assay, conditions: library / dose series: MIPE library, 11-point 1:3 dilution; top concentration 46.1 µM; 48 h

With CC(C)(C)c1cc(C(=O)O)c(NC(=O)Nc2ccc3[nH]ncc3c2)s1 as the compound, how does the viability read?
Its viability is 87.6.

How did the viability turn out when COc1ccc([C@@H]2CC(=O)c3c(O)cc(O[C@@H]4O[C@H](CO[C@@H]5O[C@@H](C)[C@H](O)[C@@H](O)[C@H]5O)[C@@H](O)[C@H](O)[C@H]4O)cc3O2)cc1O was run?
Its viability is 94.4 and 102.

COc1cccc(N(C)C(=S)Oc2ccc3c(c2)CCCC3)n1 was tested. Which viability did it give?
Its viability is 126.

How did the viability turn out when C=C1C(=O)[C@@]23C(CC[C@@H]1[C@H]2O)[C@@]12CO[C@]3(O)[C@@H](O)[C@@H]1C(C)(C)CC[C@@H]2O (stereo partly drawn) was run?
Its viability is 119.

How did the viability turn out when CCc1cncnc1N1CCN(Cc2nc3cc(C(F)(F)F)ccc3[nH]2)CC1 was run?
The viability was 84.5.

For CCOC(=O)c1ccc(C#Cc2ccc3c(c2)C(C)(C)CCS3)nc1, which viability is on record?
The viability was 118.

How did the viability turn out when S=C1N\C=N/C2=C1[NH]C=N2 was run?
Its viability is 103.

CC(C)(N)C(=O)N[C@H](COCc1ccccc1)C(=O)N1CCC2(CC1)CN([S+](C)(=O)[O-])c1ccccc12 was tested. Which viability did it give?
Its viability is 103.

For CN(C)CCc1c[nH]c2ccc(Cn3cncn3)cc12, which viability is on record?
The viability was 100.

Which viability does the source give for Oc1cc(-c2nc(-c3ccccc3)[nH]c2-c2ccncc2)ccc1Cl here?
The viability was 91.4.

How did the viability turn out when CN[C@@H](C)[C@H]1[C@H](O)C[C@@]2(C)[C@@H]3CC[C@H]4C(C)(C)[C@@H](NC)CC[C@@]45C[C@@]35CC[C@]12C was run?
The viability was 96.

Which viability does the source give for CC1(N2CCC(n3c([C@@H]4CCCNC4)nc4ccccc43)CC2)CCCCCCC1 here?
Its viability is 115.

With C\C1=C\N([C@H]2C[C@H](N=[N+]=[N-])[C@@H](CO)O2)C(=O)NC1=O as the compound, how does the viability read?
Its viability is 113.

O=C(NOC[C@H](O)CO)c1ccc(F)c(F)c1Nc1ccc(I)cc1F was tested. Which viability did it give?
The viability was 101.

With CN(C)C(=O)c1ccc([S+](=O)([O-])c2ccc(NC(=O)[C@@](C)(O)C(F)(F)F)c(Cl)c2)cc1 as the compound, how does the viability read?
The viability was 113.

How did the viability turn out when COC(=O)\C1=C\CCN(C)C1 was run?
The viability was 111.

NC\1=N\C(=O)N(\C=N1)[C@H]2C[C@H](O)[C@@H](CO)O2 was tested. Which viability did it give?
The viability was 105.

With NC(=O)c1ccc(-c2nc(-c3ccc4c(c3)OCCO4)c(-c3ccccn3)[nH]2)cc1 as the compound, how does the viability read?
The viability was 131.

For COc1nc(N)nc2c1ncn2[C@@H]1O[C@H](CO)[C@@H](O)[C@@H]1O, which viability is on record?
The viability was 120.

With CCC(=O)OCC(=O)[C@@]1(OC(=O)CC)[C@@H](C)C[C@H]2[C@@H]3CCC4=CC(=O)C=C[C@]4(C)[C@@]3(F)[C@@H](O)C[C@@]21C as the compound, how does the viability read?
Its viability is 120.

With Cc1cnc(C(=O)O)c[n+]1[O-] as the compound, how does the viability read?
The viability was 117.

For CC(C)(C)C(=O)Oc1ccc2c(c1)nc(NC(=O)c1cccc([N+](=O)[O-])c1)n2CCCO, which viability is on record?
The viability was 106.

CCC1=C[C@@H]2CN(C1)Cc1c([nH]c3ccccc13)[C@@](C(=O)OC)(c1cc3c(cc1OC)N(C)[C@H]1[C@@](O)(C(=O)OC)[C@H](OC(C)=O)[C@]4(CC)C=CCN5CC[C@]31[C@@H]54)C2 was tested. Which viability did it give?
The viability was 89.9.

With CN1CCN(c2ncc(-c3cc(Cl)cc(Cl)c3Cl)c(N)n2)CC1 as the compound, how does the viability read?
Its viability is 119.

With O=C(Nc1cccc(C(F)(F)F)c1)Nc1cc([S+](=O)([O-])NC2CC2)ccc1-c1ccsc1 as the compound, how does the viability read?
The viability was 124.

With C[C@]12CC[C@@H]3c4ccc(O)cc4CC[C@H]3[C@@H]1[C@@H](O)[C@@H](O)[C@@H]2O as the compound, how does the viability read?
Its viability is 94.5.

For CN1CC/C(CC1)=C3\c4ccccc4CC(=O)c2sccc23, which viability is on record?
Its viability is 97.2.

Which viability does the source give for COC(=O)C/1=C/O[C@@H](O)[C@H]\2[C@@H]1C\C=C2CO here?
The viability was 94.5.

With CN1CCN(C2=Nc3cc(Cl)ccc3Nc3ccccc32)CC1 as the compound, how does the viability read?
The viability was 109.

CCCCC[C@H](O)/C=C/[C@H]1[C@H](O)CC(=O)[C@@H]1CCCCCCC(=O)O was tested. Which viability did it give?
Its viability is 107.

COc1cc[nH]c2ncc(C(=O)C(=O)N3CCN(C(=O)c4ccccc4)C[C@H]3C)c1-2 was tested. Which viability did it give?
The viability was 134.

Which viability does the source give for COc1ccc2[nH]cc(CCNC(C)=O)c2c1 here?
Its viability is 106.

For COc1ccc(C2CNC(=O)C2)cc1OC1CCCC1 (stereo not drawn), which viability is on record?
Its viability is 136.

How did the viability turn out when CC[C@H]1CN2CCc3cc(OC)c(OC)cc3[C@@H]2C[C@@H]1C[C@H]1NCCc2cc(OC)c(OC)cc21 was run?
The viability was 79.9.

Which viability does the source give for CCCNCC(O)COc1ccccc1C(=O)CCc1ccccc1 (stereo not drawn) here?
The viability was 90.5.

Which viability does the source give for Cc1c(NC(=O)OC[C@@H]2COCCN2)cn2ncnc(Nc3ccc4c(cnn4Cc4cccc(F)c4)c3)c12 here?
The viability was 75.8.

For c1cc(-c2cnn3cc(-c4ccc(OCCN5CCCCC5)cc4)cnc23)ccn1, which viability is on record?
The viability was 48.4.

How did the viability turn out when COc1cc2nccc(Oc3ccc(NC(=O)Nc4ccc(F)cc4F)c(F)c3)c2cc1OC was run?
The viability was 91.3.

With CNC(=O)N1\N=C(\C2=CC=C(N)C=C2)C3=CC4=C(OCO4)C=C3CC1C (stereo not drawn) as the compound, how does the viability read?
Its viability is 107.

How did the viability turn out when O=C([O-])C(O)Cc1ccc(O)c(O)c1 (stereo not drawn) was run?
Its viability is 106.

For OCCN1C[C@H](O)[C@@H](O)[C@H](O)[C@H]1CO, which viability is on record?
The viability was 151.

C[C@]12CC[C@@H]3c4ccc(O)cc4CC[C@H]3[C@@H]1C[C@@H](O)[C@@H]2O was tested. Which viability did it give?
The viability was 87.

Which viability does the source give for O=C(NCC1CCOCC1)c1cnc(Nc2ccc(Cl)cc2Cl)nc1C(F)(F)F here?
The viability was 141.

How did the viability turn out when COc1ccc(C(=O)c2c(C)n(CCN3CCOCC3)c3cc(I)ccc23)cc1 was run?
Its viability is 143.

For C/C(=C\c1csc(C)n1)[C@@H]1C[C@@H]2O[C@]2(C)CCC[C@H](C)[C@H](O)[C@@H](C)C(=O)C(C)(C)[C@@H](O)CC(=O)O1, which viability is on record?
The viability was 102.

Cc1cccc(C)c1OCC(=O)N[C@@H](Cc1ccccc1)[C@@H](O)C[C@H](Cc1ccccc1)NC(=O)[C@H](C(C)C)N1CCCNC1=O was tested. Which viability did it give?
Its viability is 121.

Which viability does the source give for OC1CCC(CC1)N2\C=N/C3=C(C2=N)C(=C([N]3CC4=CC=CC=C4)C5=CC=CC=C5)C6=CC=CC=C6 (stereo not drawn) here?
The viability was 126.

With NC(=O)c1ccc2[nH]ccc2c1 as the compound, how does the viability read?
Its viability is 122.

How did the viability turn out when c1cc(CN2CCCNCCNCCCNCC2)ccc1CN1CCCNCCNCCCNCC1 was run?
The viability was 144.

With O=C(O)c1cccc(-c2noc(-c3ccccc3F)n2)c1 as the compound, how does the viability read?
The viability was 118.

With CC1(C)[C@@H](O)CC[C@@]2(C)[C@H]1CC[C@]3(C)[C@@H]2C(=O)\C=C/4[C@@H]5C[C@](C)(CC[C@]5(C)CC[C@@]34C)C(O)=O as the compound, how does the viability read?
The viability was 117.

Which viability does the source give for COC(=O)N1CCN(Cc2cccc(NC(=O)Nc3ccc(C)nc3)c2F)CC1 here?
Its viability is 105.

For CCNC(=O)[C@H]1O[C@@H](n2cnc3c(N)nc(NCCc4ccc(CCC(=O)O)cc4)nc32)[C@H](O)[C@@H]1O, which viability is on record?
Its viability is 112.

With CC(C)[C@H](CO)Nc1nc(Nc2cccc(Cl)c2)c2ncn(C(C)C)c2n1 as the compound, how does the viability read?
The viability was 21.1.

Which viability does the source give for Nc1ncnc2c1ncn2[C@@H]1O[C@H](CO)[C@@H](O)[C@H]1O here?
Its viability is 132.

For COc1ccnc(C[S+]([O-])c2nc3cc(OC(F)F)ccc3[nH]2)c1OC (stereo not drawn), which viability is on record?
Its viability is 98.7.

For CCCCCCNC(=O)N1\C=C(F)/C(=O)NC1=O, which viability is on record?
The viability was 106.

With Cc1[nH]c(/C=C2\C(=O)Nc3ccc([S+](=O)([O-])N(C)c4cccc(Cl)c4)cc32)c(C)c1C(=O)N1CCN(C)CC1 as the compound, how does the viability read?
Its viability is 138.

How did the viability turn out when O=C(/C=C/c1ccc(/C=C/C(=O)Nc2ccc(C3=NCCN3)cc2)cc1)Nc1ccc(C2=NCCN2)cc1 was run?
The viability was 117.

With Cc1cccc(-c2nn(C(=S)Nc3ccccc3)cc2-c2ccnc3ccccc23)n1 as the compound, how does the viability read?
The viability was 135.

Which viability does the source give for C#CCN(C)[C@H](C)Cc1ccccc1 here?
Its viability is 92.4.

same assay, conditions: library / dose series: MIPE library, 11-point 1:3 dilution; top concentration 92.2 µM; 48 h

With O=C(/C=C/c1cccc([S+](=O)([O-])Nc2ccccc2)c1)NO as the compound, how does the viability read?
Its viability is 87.7.
